This data set concerns Phospholipidosis. The data set is described as follows: Literature-mined public compounds from Lowe et al phospholipidosis modelling dataset.

SMILES strings stand for the structures.

On to `CNS(=O)(=O)Cc1ccc2[nH]cc(CCN(C)C)c2c1`, for which the Phospholipidosis result is on record as “Negative”. The value for `CN(C)CCN(Cc1cccs1)c1ccccn1` was “Negative”; that for `CN1CCN(Cc2nc3cccc4c3c([n+]2[O-])-c2ccccc2-4)CC1` was “Positive”; that for `CC1=C(CC(=O)O)c2cc(F)ccc2/C1=C\c1ccc([S+](C)[O-])cc1` (centres undefined) was “Negative”. The entry for `CN(C)CCC=C1c2ccccc2CCc2c(Cl)cccc21` is “Positive”; for `OC(CN1CCCCC1)c1ccc(C=C2c3ccccc3-c3ccccc32)cc1` (centres undefined) it is “Positive”; for `CCCC[C@@H]1CC(=O)[C@]2(O)O[C@@H]3[C@@H](NC)[C@@H](O)[C@@H](NC)[C@H](O)[C@H]3O[C@@H]2O1.O=S(=O)(O)O` it is “Positive”. With `CN1CCN(C2=Nc3cc(Cl)ccc3N(C)n3cccc32)CC1`, the Phospholipidosis entry was “Positive”. The entry for `C=C1C[C@@H]1C[C@H](N)C(=O)O` is “Negative”; for `CN(C)CCC=C1c2ccccc2C=Cc2c(Cl)cccc21` it is “Positive”.

In the case of `CCN(CC)CCn1nc2c3c(c(C)ccc31)Sc1cc(Cl)ccc1-2`, the Phospholipidosis result was “Positive”.

For the compound `CCN(CC)Cc1cc(Nc2ccnc3cc(Cl)ccc23)ccc1O.Cl`, the Phospholipidosis result is listed as “Positive”. Regarding `CC1(C)OCC(C(CS(=O)(=O)c2ccc(Oc3cccc(OC(F)(F)F)c3)cc2)NC=O)O1` (centres undefined), the Phospholipidosis entry is “Negative”. As for `CC1(C)C(=O)NC(=O)N1CC(COc1ccc(-c2ccc(OC(F)(F)F)cc2)cc1)NC=O` (centres undefined), the Phospholipidosis result is given as “Negative”. The value for `CC1(C)C(=O)NC(=O)N1CC(N)COc1ccc(-c2ccc(OC(F)(F)F)cc2)cc1` (centres undefined) was “Positive”. With `CCCN[C@@H]1[C@H](C)[C@@H](O)[C@](C)(O)[C@@H](CC)OC(=O)[C@H](C)[C@@H](O[C@H]2C[C@@](C)(OC)[C@@H](O)[C@H](C)O2)[C@H](C)[C@@H](O[C@@H]2O[C@H](C)C[C@H](N(C)C)[C@H]2O)[C@](C)(O)C[C@H]1C`, the Phospholipidosis result is on record as “Positive”. The entry for `CCCNCCc1ccc(NS(=O)(=O)c2ccc(OC(F)(F)F)cc2)cc1` is “Positive”; for `NC[C@H]1Cc2ccc(F)cc2[C@@H](c2ccccc2)O1` it is “Positive”. The value for `Clc1ccccc1CNC[C@H]1CC[C@H](CNCc2ccccc2Cl)CC1` was “Positive”. The entry for `CC1(C)OC[C@H]([C@@H](CS(=O)(=O)c2ccc(Oc3ccc(OC(F)(F)F)cc3)cc2)N(O)C=O)O1` is “Negative”.

In the case of `NCCc1cc(O)c(O)c(O)c1`, the Phospholipidosis result is listed as “Positive”. For `CCC[C@@H](NC(=O)N1C(=O)C(CC)(CC)[C@@H]1Oc1ccc(C(=O)N2CCN(C)CC2)cc1)c1ccc2c(c1)OCO2`, the Phospholipidosis result is reported as “Positive”.

Regarding `CC1(C)NC(=O)N(C[C@@H](COc2ccc(-c3ccc(OC(F)(F)F)cc3)cc2)N(O)C=O)C1=O`, the Phospholipidosis entry is on record as “Negative”. The value for `C[n+]1ccc(-c2cc[n+](C)cc2)cc1` was “Positive”. With `S=C=Nc1cccc2ccccc12` [1-NAPHTHYLISOTHIOCYANATE], the Phospholipidosis result is reported as “Negative”.

Take `Cc1ccc2cc3c(ccc4ccccc43)c3c2c1CC3` [3-METHYLCHOLANTHRENE]: the Phospholipidosis result is “Negative”. The entry for `Nc1nc(NC2CC2)c2ncn([C@H]3C=C[C@@H](CO)C3)c2n1` [ABACAVIR] is “Negative”. The value for `CC(=O)Nc1ccc(O)cc1` [ACETAMINOPHEN] was “Negative”; that for `Oc1ncnc2[nH]ncc12` [ALLOPURINOL] was “Positive”. The value for `NC12CC3CC(CC(C3)C1)C2` [AMANTADINE] was “Positive”.

Consider `Nc1c(Br)cc(Br)cc1CN[C@H]1CC[C@H](O)CC1` [AMBROXOL], for which the Phospholipidosis result is recorded as “Positive”. The value for `NCC[C@H](O)C(=O)N[C@@H]1C[C@H](N)[C@@H](O[C@H]2O[C@H](CN)[C@@H](O)[C@H](O)[C@H]2O)[C@H](O)[C@H]1O[C@H]1O[C@H](CO)[C@@H](O)[C@H](N)[C@H]1O` [AMIKACIN] was “Positive”. For `O=C(O)CCCCCCNC1c2ccccc2CCc2ccccc21` [AMINEPTINE], the Phospholipidosis entry is “Negative”. As for `CCCCc1oc2ccccc2c1C(=O)c1cc(I)c(OCCN(CC)CC)c(I)c1` [AMIODARONE], the Phospholipidosis entry was “Positive”. Take `CN(C)CCC=C1c2ccccc2CCc2ccccc21` [AMITRIPTYLINE]: the Phospholipidosis entry is recorded as “Positive”. The value for `CC(=O)Oc1ccccc1C(=O)O` [ASPIRIN] was “Negative”; that for `CN1[C@@H]2CC[C@H]1C[C@@H](OC(=O)C(CO)c1ccccc1)C2` (some centres undefined) [ATROPINE] was “Positive”. In the case of `Cl.Cl.O=C(CCN1CCN2CCCC2C1)N1c2ccccc2Sc2ccc(Cl)cc21` (centres undefined) [AZACLORZINE HYDROCHLORIDE], the Phospholipidosis result is listed as “Negative”.

Regarding `CN(C)CCCN(C)[C@H]1CC[C@H]2[C@@H]3CC=C4C[C@@H](O)CC[C@]4(C)[C@H]3CC[C@]12C` [AZACOSTEROL], the Phospholipidosis result is “Positive”. In the case of `[N-]=[N+]=CC(=O)OC[C@H](N)C(=O)O` [AZASERINE], the Phospholipidosis result was “Negative”. The entry for `CN1CCN(CCCCN2C(=O)CN(/N=C/c3ccc(-c4ccc(Cl)cc4)o3)C2=O)CC1.Cl.Cl` [AZIMILIDE DIHYDROCHLORIDE] is “Positive”; for `CC[C@H]1OC(=O)[C@H](C)[C@@H](O[C@H]2C[C@@](C)(OC)[C@@H](O)[C@H](C)O2)[C@H](C)[C@@H](O[C@@H]2O[C@H](C)C[C@H](N(C)C)[C@H]2O)[C@](C)(O)C[C@@H](C)CN(C)[C@H](C)[C@@H](O)[C@]1(C)O` [AZITHROMYCIN] it is “Positive”; for `NC(=O)c1ccccc1` [BENZAMIDE] it is “Positive”. The entry for `CC(O)(CS(=O)(=O)c1ccc(F)cc1)C(=O)Nc1ccc(C#N)c(C(F)(F)F)c1` (centres undefined) [BICALUTAMIDE] is “Negative”; for `C=CC1=C(C)/C(=C/c2[nH]c(Cc3[nH]c(/C=C4\NC(=O)C(C)=C4C=C)c(C)c3CCC(=O)O)c(CCC(=O)O)c2C)NC1=O` [BILIRUBIN] it is “Positive”. With `FC(F)(F)c1ccc(-c2ccc(OCCN3CCCC3)cc2)cc1` [BOXIDINE], the Phospholipidosis result was “Positive”.

In the case of `CN(Cc1cc(Br)cc(Br)c1N)C1CCCCC1` [BROMHEXINE], the Phospholipidosis entry is listed as “Positive”. The entry for `CC(NC(C)(C)C)C(=O)c1cccc(Cl)c1` (centres undefined) [BUPROPION] is “Negative”; for `O=C1CC2(CCCC2)CC(=O)N1CCCCN1CCN(c2ncccn2)CC1` [BUSPIRONE] it is “Negative”; for `Cn1c(=O)c2c(ncn2C)n(C)c1=O` [CAFFEINE] it is “Negative”. The value for `NC(=O)N1c2ccccc2C=Cc2ccccc21` [CARBAMAZEPINE] was “Negative”; that for `ClC(Cl)(Cl)Cl` [CARBON TETRACHLORIDE] was “Negative”; that for `CC(C)(O/N=C(\C(=O)N[C@@H]1C(=O)N2C(C(=O)[O-])=C(C[n+]3ccccc3)CS[C@H]12)c1csc(N)n1)C(=O)O` [CEFTAZIDIME] was “Negative”. Regarding `O=C(N[C@H](CO)[C@H](O)c1ccc([N+](=O)[O-])cc1)C(Cl)Cl` [CHLORAMPHENICOL], the Phospholipidosis entry is given as “Positive”. The value for `CN1CCN(C(c2ccccc2)c2ccc(Cl)cc2)CC1` (centres undefined) [CHLORCYCLIZINE] was “Positive”; that for `ClC(Cl)Cl` [CHLOROFORM] was “Negative”; that for `CC(CCCN(CCCl)CCCl)Nc1ccnc2cc(Cl)ccc12` (centres undefined) [CHLOROQUINE MUSTARD] was “Positive”. The entry for `CCN(CC)CCCC(C)Nc1ccnc2cc(Cl)ccc12` (centres undefined) [CHLOROQUINE] is “Positive”; for `CC(C)(N)Cc1ccc(Cl)cc1` [CHLORPHENTERMINE] it is “Positive”; for `CN(C)CCCN1c2ccccc2Sc2ccc(Cl)cc21` [CHLORPROMAZINE] it is “Positive”. Take `CN(C)[C@@H]1C(O)=C(C(N)=O)C(=O)[C@@]2(O)C(O)=C3C(=O)c4c(O)ccc(Cl)c4[C@@](C)(O)[C@H]3C[C@@H]12` [CHLORTETRACYCLINE]: the Phospholipidosis result is “Negative”. The entry for `CN/C(=N/CCSCc1nc[nH]c1C)NC#N` [CIMETIDINE] is “Negative”; for `CC(C)(Oc1ccc(C2CC2(Cl)Cl)cc1)C(=O)O` (centres undefined) [CIPROFIBRATE] it is “Negative”.

On to `CN(C)CCCC1(c2ccc(F)cc2)OCc2cc(C#N)ccc21` (centres undefined) [CITALOPRAM], for which the Phospholipidosis result is “Positive”.

For the compound `CC[C@H]1OC(=O)[C@H](C)[C@@H](O[C@H]2C[C@@](C)(OC)[C@@H](O)[C@H](C)O2)[C@H](C)[C@@H](O[C@@H]2O[C@H](C)C[C@H](N(C)C)[C@H]2O)[C@](C)(OC)C[C@@H](C)C(=O)[C@H](C)[C@@H](O)[C@]1(C)O` [CLARITHROMYCIN], the Phospholipidosis entry was “Negative”. Take `CCC[C@@H]1C[C@@H](C(=O)N[C@@H]([C@H]2O[C@H](SC)[C@H](O)[C@@H](O)[C@H]2O)[C@H](C)Cl)N(C)C1` [CLINDAMYCIN]: the Phospholipidosis entry is recorded as “Positive”.

In the case of `CC1(C)N=C(N)N=C(N)N1OCc1ccc(Cl)c(Cl)c1` [CLOCIGUANIL], the Phospholipidosis entry is “Positive”. For the compound `CCOC(=O)C(C)(C)Oc1ccc(Cl)cc1` [CLOFIBRATE], the Phospholipidosis result is reported as “Negative”. As for `CCOC(=O)NC(C)(C)Cc1ccc(Cl)cc1` [CLOFOREX], the Phospholipidosis result is given as “Negative”. The value for `N#Cc1ccc(NC(=O)N=C(N)N)cc1Cl` [CLOGUANAMIL] was “Positive”. The value for `CN(C)CCCC1c2ccccc2Nc2ccc(Cl)cc21` (centres undefined) [CLOMACRAN] was “Positive”. The value for `CN(C)CCCN1c2ccccc2CCc2ccc(Cl)cc21` [CLOMIPRAMINE] was “Positive”. On to `CN1CCN(C2=Nc3cc(Cl)ccc3Nc3ccccc32)CC1` [CLOZAPINE], for which the Phospholipidosis entry is “Positive”. The entry for `COc1cc2c(c(OC)c1OC)-c1ccc(OC)c(=O)cc1[C@@H](NC(C)=O)CC2` [COLCHICINE] is “Negative”.
